The text below walks through data of patent publication US11078216B2, “Bisaryl amides as NRF2 activators” (GLAXOSMITHKLINE INTELLECTUAL PROPERTY DEVELOPMENT LIMITED, priority 2016, dated 2021).

The assay relates to NRF2 (NQO1 activity as marker for NRF2 activation), BEAS-2B cells. Nature of the assay: BEAS-2B NQO1 MTT Assay. The assay is classed as cell-based. As to conditions: Homo sapiens, EC50 of NQO1 specific activity induction, 48 hours incubation, read-out: EC50. Summed up:
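BEAS-2B cells were exposed to compound for 48 h at 37° C, 5% CO2, then lysed. NQO1 activity was measured kinetically by MTT reduction at 570 nm over 30 minutes; EC50 came from 3-parameter fit of Delta OD/min versus log concentration.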

pEC50: −log10 of the molar value. Counter-ions that a name gives are not always drawn.

The term pEC50 denotes the negative decadic logarithm of the EC50, by convention in mol/L. As to `CCn1nnc2c(C)c([C@H](c3ccc(C)c(CN4C[C@@H](C)Cc5cc(C(F)(F)F)ccc5S4(=O)=O)c3)C(C)(C)C(=O)Nc3cccnc3)cc(OC)c21` [Example 66, (S)-3-(1-Ethyl-7-methoxy-4-methyl-1H-benzo[d][1,2,3]triazol-5-yl)-2,2-dimethyl-3-(4-methyl-3-(((S)-4-methyl-1,1-dioxido-7-(trifluoromethyl)-4,5-dihydrobenzo[f][1,2]thiazepin-2(3H)-yl)methyl)phenyl)-N-(pyridin-3-yl)propanamide], the pEC50 was 7.00 to 8.00. As to `CC[C@@H]1CN(Cc2cc([C@H](CC(=O)Nc3nn[nH]n3)c3ccc4c(nnn4CC)c3C)ccc2C)S(=O)(=O)c2cccnc2O1` [Example 67, (S)-3-(3-(((R)-4-Ethyl-1,1-dioxido-3,4-dihydro-2H-pyrido[2,3-b][1,4,5]oxathiazepin-2-yl)methyl)-4-methylphenyl)-3-(1-ethyl-4-methyl-1H-benzo[d][1,2,3]triazol-5-yl)-N-(2H-tetrazol-5-yl)propanamide], the negative logarithm of the EC50 (pEC50) was 6.00 to 7.00. In the case of `CC[C@@H]1CN(Cc2cc([C@@H](c3ccc4c(nnn4CC)c3C)C(C)(C)C(N)=O)ccc2C)S(=O)(=O)c2cccnc2O1` [Example 68, (S)-3-(3-(((R)-4-Ethyl-1,1-dioxido-3,4-dihydro-2H-pyrido[2,3-b][1,4,5]oxathiazepin-2-yl)methyl)-4-methylphenyl)-3-(1-ethyl-4-methyl-1H-benzo[d][1,2,3]triazol-5-yl)-2,2-dimethylpropanamide], the pEC50 was 8.00 to 9.00.

As for `Cc1ccc(C(CC(=O)Nc2cccnc2)c2ccc(C#N)cc2C)cc1CN1CC(C)Cc2ccc(C(F)(F)F)cc2S1(=O)=O` (centres unmarked) [Example 70, 3-(4-Cyano-2-methylphenyl)-3-(4-methyl-3-((4-methyl-1,1-dioxido-8-(trifluoromethyl)-4,5-dihydrobenzo[f][1,2]thiazepin-2(3H)-yl)methyl)phenyl)-N-(pyridin-3-yl)propanamide], the pEC50 is 6.00 to 7.00.

Regarding `CC[C@H]1Cc2ccccc2S(=O)(=O)N(Cc2cc([C@@H](c3ccc4c(nnn4CC)c3C)C(C)(C)C(=O)Nc3ncns3)ccc2C)C1` [Example 71, (S)-3-(3-(((S)-4-Ethyl-1,1-dioxido-4,5-dihydrobenzo[f][1,2]thiazepin-2(3H)-yl)methyl)-4-methylphenyl)-3-(1-ethyl-4-methyl-1H-benzo[d][1,2,3]triazol-5-yl)-2,2-dimethyl-N-(1,2,4-thiadiazol-5-yl)propanamide], the pEC50 is 8.00 to 9.00.

For the compound `CC[C@H]1Cc2ccccc2S(=O)(=O)N(Cc2cc([C@@H](c3ccc4c(nnn4CC)c3C)C(C)(C)C(=O)Nc3nnnn3-c3ccccc3)ccc2C)C1` [Example 72, (S)-3-(3-(((S)-4-Ethyl-1,1-dioxido-4,5-dihydrobenzo[f][1,2]thiazepin-2(3H)-yl)methyl)-4-methylphenyl)-3-(1-ethyl-4-methyl-1H-benzo[d][1,2,3]triazol-5-yl)-2,2-dimethyl-N-(1-phenyl-1H-tetrazol-5-yl)propanamide], the negative logarithm of the EC50 (pEC50) was 7.00 to 8.00. As to `CC[C@H]1Cc2ccccc2S(=O)(=O)N(Cc2cc([C@@H](c3ccc4c(nnn4CC)c3C)C(C)(C)C(=O)Nc3nnnn3CC(C)=O)ccc2C)C1` [Example 73, (S)-3-(3-(((S)-4-Ethyl-1,1-dioxido-4,5-dihydrobenzo[f][1,2]thiazepin-2(3H)-yl)methyl)-4-methylphenyl)-3-(1-ethyl-4-methyl-1H-benzo[d][1,2,3]triazol-5-yl)-2,2-dimethyl-N-(1-(2-oxopropyl)-1H-tetrazol-5-yl)propanamide], the pEC50 is 7.00 to 8.00. Take `CC[C@H]1Cc2ccccc2S(=O)(=O)N(Cc2cc([C@@H](c3ccc4c(nnn4CC)c3C)C(C)(C)C(=O)Nc3nnnn3-c3ccccn3)ccc2C)C1` [Example 74, (S)-3-(3-(((S)-4-Ethyl-1,1-dioxido-4,5-dihydrobenzo[f][1,2]thiazepin-2(3H)-yl)methyl)-4-methylphenyl)-3-(1-ethyl-4-methyl-1H-benzo[d][1,2,3]triazol-5-yl)-2,2-dimethyl-N-(1-(pyridin-2-yl)-1H-tetrazol-5-yl)propanamide]: the negative logarithm of the EC50 (pEC50) was 8.00 to 9.00.

For `CC[C@H]1Cc2ccccc2S(=O)(=O)N(Cc2cc([C@@H](c3ccc4c(nnn4CC)c3C)C(C)(C)C(=O)Nc3nnnn3Cc3nccs3)ccc2C)C1` [Example 75, (S)-3-(3-(((S)-4-Ethyl-1,1-dioxido-4,5-dihydrobenzo[f][1,2]thiazepin-2(3H)-yl)methyl)-4-methylphenyl)-3-(1-ethyl-4-methyl-1H-benzo[d][1,2,3]triazol-5-yl)-2,2-dimethyl-N-(1-(thiazol-2-ylmethyl)-1H-tetrazol-5-yl)propanamide], the pEC50 was 8.00 to 9.00. For the compound `CC[C@H]1Cc2ccccc2S(=O)(=O)N(Cc2cc([C@@H](c3ccc4c(nnn4CC)c3C)C(C)(C)C(=O)Nc3nnnn3CC(=O)O)ccc2C)C1` [Example 76, 2-(5-((S)-3-(3-(((S)-4-Ethyl-1,1-dioxido-4,5-dihydrobenzo[f][1,2]thiazepin-2(3H)-yl)methyl)-4-methylphenyl)-3-(1-ethyl-4-methyl-1H-benzo[d][1,2,3]triazol-5-yl)-2,2-dimethylpropanamido)-1H-tetrazol-1-yl)acetic Acid], the pEC50 was 7.00 to 8.00. For `CC[C@@H]1CN(Cc2cc([C@@H](c3ccc4c(nnn4CC)c3C)C(C)(C)NC(=O)c3nnn[nH]3)ccc2C)S(=O)(=O)c2ccccc2O1` [Example 77, N—((S)-1-(3-(((R)-4-Ethyl-1,1-dioxido-3,4-dihydro-2H-benzo[b][1,4,5]oxathiazepin-2-yl)methyl)-4-methylphenyl)-1-(1-ethyl-4-methyl-1H-benzo[d][1,2,3]triazol-5-yl)-2-methylpropan-2-yl)-1H-tetrazole-5-carboxamide, Trifluoroacetic Acid Salt] the value was 6.00 to 7.00; for `CC[C@H]1Cc2ccc(C(F)(F)F)cc2S(=O)(=O)N(Cc2cc([C@@H](c3ccc4c(nnn4CC)c3C)C(C)(C)NC(=O)Cc3nnn[nH]3)ccc2C)C1` [Example 78, N—((S)-1-(3-(((S)-4-Ethyl-1,1-dioxido-8-(trifluoromethyl)-4,5-dihydrobenzo[f][1,2]thiazepin-2(3H)-yl)methyl)-4-methylphenyl)-1-(1-ethyl-4-methyl-1H-benzo[d][1,2,3]triazol-5-yl)-2-methylpropan-2-yl)-2-(1H-tetrazol-5-yl)acetamide], 7.00 to 8.00; for `CC[C@@H]1CN(Cc2cc([C@@H](c3ccc4c(nnn4C)c3C)C(C)(C)C(=O)NCCNC)ccc2C)Cc2cnccc2O1` [Example 79, (S)-3-(1,4-Dimethyl-1H-benzo[d][1,2,3]triazol-5-yl)-3-(3-(((R)-2-ethyl-2,3-dihydropyrido[3,4-f][1,4]oxazepin-4(5H)-yl)methyl)-4-methylphenyl)-2,2-dimethyl-N-(2-(methylamino)ethyl)propanamide], 6.00 to 7.00. For the compound `CC[C@H]1Cc2ccccc2S(=O)(=O)N(Cc2cc([C@H](CC(=O)Nc3cccnc3)c3ccc4c(nnn4CC)c3F)ccc2C)C1` [Example 80, (S)-3-(3-(((S)-4-Ethyl-1,1-dioxido-4,5-dihydrobenzo[f][1,2]thiazepin-2(3H)-yl)methyl)-4-methylphenyl)-3-(1-ethyl-4-fluoro-1H-benzo[d][1,2,3]triazol-5-yl)-N-(pyridin-3-yl)propanamide], the pEC50 was 7.00 to 8.00. The figure for `CC[C@H]1Cc2ccccc2S(=O)(=O)N(Cc2cc([C@H](CC(=O)NCCNC)c3ccc4c(nnn4CC)c3F)ccc2C)C1` [Example 81, (S)-3-(3-(((S)-4-Ethyl-1,1-dioxido-4,5-dihydrobenzo[f][1,2]thiazepin-2(3H)-yl)methyl)-4-methylphenyl)-3-(1-ethyl-4-fluoro-1H-benzo[d][1,2,3]triazol-5-yl)-N-(2-(methylamino)ethyl)propanamide] is 7.00 to 8.00; for `CCCn1cc(CC[C@@H](c2ccc(C)c(CN3C[C@@H](CC)Oc4ccccc4S3(=O)=O)c2)C(C)(C)C(=O)Nc2cccnc2)nn1` [Example 82, (S)-3-(3-(((R)-4-Ethyl-1,1-dioxido-3,4-dihydro-2H-benzo[b][1,4,5]oxathiazepin-2-yl)methyl)-4-methylphenyl)-2,2-dimethyl-5-(1-propyl-1H-1,2,3-triazol-4-yl)-N-(pyridin-3-yl)pentanamide] it is 6.00 to 7.00; for `CCCn1cc(CC[C@H](c2ccc(C)c(CN3C[C@@H](CC)Oc4ccccc4S3(=O)=O)c2)C(C)(C)C(=O)Nc2cccnc2)nn1` [Example 83, (R)-3-(3-(((R)-4-Ethyl-1,1-dioxido-3,4-dihydro-2H-benzo[b][1,4,5]oxathiazepin-2-yl)methyl)-4-methylphenyl)-2,2-dimethyl-5-(1-propyl-1H-1,2,3-triazol-4-yl)-N-(pyridin-3-yl)pentanamide] it is 6.00 to 7.00. For `CC[C@@H]1CN(Cc2cc([C@@H](c3ccc4c(nnn4C)c3C)C(C)(C)C(=O)Nc3cccnc3)ccc2Cl)S(=O)(=O)c2ccccc2O1` [Example 84, (S)-3-(4-Chloro-3-(((R)-4-ethyl-1,1-dioxido-3,4-dihydro-2H-benzo[b][1,4,5]oxathiazepin-2-yl)methyl)phenyl)-3-(1,4-dimethyl-1H-benzo[d][1,2,3]triazol-5-yl)-2,2-dimethyl-N-(pyridin-3-yl)propanamide] the value was 7.00 to 8.00; for `CCCn1nnc2c(C)c([C@H](c3ccc(C)c(CN4C[C@@H](CC)Oc5ccccc5S4(=O)=O)c3)C(C)(C)C(=O)Nc3cccnc3)ccc21` [Example 85, (S)-3-(3-(((R)-4-Ethyl-1,1-dioxido-3,4-dihydro-2H-benzo[b][1,4,5]oxathiazepin-2-yl)methyl)-4-methylphenyl)-2,2-dimethyl-3-(4-methyl-1-propyl-1H-benzo[d][1,2,3]triazol-5-yl)-N-(pyridin-3-yl)propanamide], 7.00 to 8.00; for `CC[C@@H]1CN(Cc2cc([C@@H](c3ccc4c(nnn4CC)c3C)C(C)(C)C(=O)Nc3cnc(Cl)nc3)ccc2C)S(=O)(=O)c2cccnc2O1` [Example 86, (S)—N-(2-Chloropyrimidin-5-yl)-3-(3-(((R)-4-ethyl-1,1-dioxido-3,4-dihydro-2H-pyrido[2,3-b][1,4,5]oxathiazepin-2-yl)methyl)-4-methylphenyl)-3-(1-ethyl-4-methyl-1H-benzo[d][1,2,3]triazol-5-yl)-2,2-dimethylpropanamide], 8.00 to 9.00.
